{"source": "patent EP0324875A1", "about": "(priority 1988, dated 1989)", "key": {"[1]": {"tested_on": "Grippe-Virus B/Lii", "experiment": "One-cycle test, virus yield in calf kidney cell culture", "assay_type": "cell-based", "details": "MOI = 1", "text": "Bei den Mehrcyclen- und Eincyclustests werden einschichtige Zellkulturen einer embryonalen Kalbsniere verwendet, welche mit Grippe-Viren A/H3N2/Texas/77 und B/Lii/MOI = 0.01-0.5 und 1-10 entsprechend infiziert werden. Die Ausbeute an infektiösem und hämaglutinierendem Virus wird in der 24sten Stunde (bei einem Mehrcyclentest) und entsprechend in der zwölften bis fünfzehnten Stunde (bei einem Eincyclustest) ausgerechnet. Der infektiöse Titer wird EID₅₀/ml bestimmt. Dieselben Versuche werden auch mit Virus FPV (Stamm Weibridge) in Zellen EHF(bei Ausrechnung des infektiösen Virus Plaque-bildenden Einheiten und des hämaglutinierenden Virus) durchgeführt. Die Wirksamkeit der Verbindungen wird im Bezug auf die Kontrolle (ohne Inhibitoren) ausgerechnet."}, "[2]": {"details": "DD-13 18,7 mg/kg"}, "[3]": {"tested_on": "Virus FPV (Stamm Weibridge)", "assay_type": "cell-based, Grippe-Virus A/H7N7/", "details": "for inf. Titer in PBE/ml / XA-Titer: MOI = 0,5"}, "[4]": {"tested_on": "Virus FPV", "experiment": "organism not typed", "assay_type": "cell-based, Grippe-Virus A/H7N7/", "details": "72 h; for Inhibitionsprozent (Verminderung der Plaquebildung): Zellen EHF"}, "[5]": {"details": "read-out: Inhibitionsprozent (Verminderung der Plaquebildung)"}}, "note": "Like-named read-outs stand apart in the source and are kept apart here.", "data": [{"smiles": "O=C1NCCCN1CN1CCOCC1", "note": "[DD-13]", "values": [{"measurement": "inf. Titer in log. EID50/ml", "setting": "[1]; DD-13 12,5 (unit not given) alone, control without inhibitors 6,3", "value": "4,0 log. EID50/ml"}, {"measurement": "XA-Titer", "setting": "[1]; DD-13 12,5 (unit not given) alone, control without inhibitors 8", "value": 8}, {"measurement": "inf. Titer in log. EID50/ml", "setting": "[1]; DD-13 25 (unit not given) alone, control 6,3", "value": "2,5 log. EID50/ml"}, {"measurement": "XA-Titer", "setting": "[1]; DD-13 25 (unit not given) alone, control 8", "value": 4}, {"measurement": "inf. Titer in log. EID50/ml", "setting": "[1]; DD-13 50 (unit not given) alone, control 6,3", "value": "2,0 log. EID50/ml"}, {"measurement": "XA-Titer", "setting": "[1]; DD-13 50 (unit not given) alone, control 8", "value": 4}, {"measurement": "dose as fraction of LD50", "setting": "[2]", "value": "1/213"}, {"measurement": "Verminderung der Ausbeute des hämaglutivierenden Virus (fold)", "setting": "[3]; 60 mkg/ml DD-13 alone", "value": "viermalige"}, {"measurement": "inf. Titer in PBE/ml", "setting": "[3]; DD-13 15 mkg/ml alone, control without inhibitors 1.7x10^7", "value": "5x10^6 PBE/ml"}, {"measurement": "XA-Titer", "setting": "[3]; DD-13 15 mkg/ml alone, control without inhibitors 2048", "value": 1024}, {"measurement": "inf. Titer in PBE/ml", "setting": "[3]; DD-13 30 mkg/ml alone, control 1.7x10^7", "value": "6,9x10^6 PBE/ml"}, {"measurement": "XA-Titer", "setting": "[3]; DD-13 30 mkg/ml alone, control 2048", "value": 512}, {"measurement": "inf. Titer in PBE/ml", "setting": "[3]; DD-13 60 mkg/ml alone, control 1.7x10^7", "value": "3,9x10^6 PBE/ml"}, {"measurement": "XA-Titer", "setting": "[3]; DD-13 60 mkg/ml alone, control 2048", "value": 256}, {"measurement": "inhibition at 10 µM", "setting": "[4]; [5]", "value": 2.3, "unit": "%"}, {"measurement": "inhibition at 30 µM", "setting": "[4]; [5]", "value": 15.2, "unit": "%"}, {"measurement": "inhibition at 100 µM", "setting": "[4]; [5]", "value": 34.3, "unit": "%"}, {"measurement": "inhibition at 300 µM", "setting": "[4]; [5]", "value": 85, "unit": "%"}, {"measurement": "inhibition at 1000 µM", "setting": "[4]; [5]", "value": 99.2, "unit": "%"}, {"measurement": "Inhibitionsprozent (Verminderung der Plaquebildung)", "setting": "[4]; DD-13 3x10^-4 M/1 alone", "value": "85,00%"}]}, {"smiles": "CC(N)C12CC3CC(CC(C3)C1)C2", "note": "(stereo not drawn) [Rimantadin, reference compound]", "values": [{"measurement": "inf. Titer in log. EID50/ml", "setting": "[1]; Rim. 5 mkg/ml alone, control 6,3", "value": "6,0 log. EID50/ml"}, {"measurement": "XA-Titer", "setting": "[1]; Rim. 5 mkg/ml alone, control 8", "value": 4}, {"measurement": "inf. Titer in log. EID50/ml", "setting": "[1]; Rim. 25 mkg/ml alone, control 6,3", "value": "4,7 log. EID50/ml"}, {"measurement": "XA-Titer", "setting": "[1]; Rim. 25 mkg/ml alone, control 8", "value": 4}, {"measurement": "Verminderung der Ausbeute des hämaglutivierenden Virus (fold)", "setting": "[3]; 5 mkg/ml Rimantadin alone", "value": 64}, {"measurement": "inf. Titer in PBE/ml", "setting": "[3]; Rim. 1 mkg/ml alone, control 1.7x10^7", "value": "4,2x10^4 PBE/ml"}, {"measurement": "XA-Titer", "setting": "[3]; Rim. 1 mkg/ml alone, control 2048", "value": 32}, {"measurement": "inf. Titer in PBE/ml", "setting": "[3]; Rim. 5 mkg/ml alone, control 1.7x10^7", "value": "4,4x10^4 PBE/ml"}, {"measurement": "XA-Titer", "setting": "[3]; Rim. 5 mkg/ml alone, control 2048", "value": 32}, {"measurement": "inhibition at 0.0001 µM", "setting": "[4]; [5]", "value": 3.52, "unit": "%"}, {"measurement": "inhibition at 0.001 µM", "setting": "[4]; [5]", "value": 18.4, "unit": "%"}, {"measurement": "inhibition at 0.01 µM", "setting": "[4]; [5]", "value": 48, "unit": "%"}, {"measurement": "Inhibitionsprozent (Verminderung der Plaquebildung)", "setting": "[4]; Rimantadin 10^-9 M/1 alone", "value": "18,37 ± 14,19%"}]}]}
